Measurements: ChEMBL document CHEMBL2073874, “The multidrug resistance transporter ABCG2 (breast cancer resistance protein 1) effluxes Hoechst 33342 and is overexpressed in hematopoietic stem cells” (Clin Cancer Res, 2002)

Target: T1, Broad substrate specificity ATP-binding cassette transporter ABCG2 (Homo sapiens, UniProt Q9UNQ0)
T1 sequence (Q9UNQ0 whole entry): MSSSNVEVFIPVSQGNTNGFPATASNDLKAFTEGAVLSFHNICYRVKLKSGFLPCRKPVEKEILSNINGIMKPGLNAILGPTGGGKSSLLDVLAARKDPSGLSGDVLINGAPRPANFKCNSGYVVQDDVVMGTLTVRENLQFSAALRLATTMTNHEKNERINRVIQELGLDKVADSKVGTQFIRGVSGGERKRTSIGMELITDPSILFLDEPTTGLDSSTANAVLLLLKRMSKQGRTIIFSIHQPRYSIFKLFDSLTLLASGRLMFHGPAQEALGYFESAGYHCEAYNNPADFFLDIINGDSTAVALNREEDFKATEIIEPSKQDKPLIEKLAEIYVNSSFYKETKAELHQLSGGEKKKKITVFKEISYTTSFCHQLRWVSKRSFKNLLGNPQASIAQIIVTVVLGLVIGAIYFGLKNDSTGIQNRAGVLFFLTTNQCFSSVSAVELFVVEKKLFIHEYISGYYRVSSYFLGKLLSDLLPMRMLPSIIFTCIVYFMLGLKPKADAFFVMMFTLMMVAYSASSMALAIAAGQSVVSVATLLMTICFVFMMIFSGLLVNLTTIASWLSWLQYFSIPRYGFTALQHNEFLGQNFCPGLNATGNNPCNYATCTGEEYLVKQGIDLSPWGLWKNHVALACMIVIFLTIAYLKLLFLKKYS
Assay: TP_TRANSPORTER: efflux in BCRP-expressing MCF-7 cells
Type: functional, cell-based
Conditions: mcf7

CCOc1ccc(-c2nc3cc(-c4nc5cc(N6CCN(C)CC6)ccc5[nH]4)ccc3[nH]2)cc1
Activity: substrate [+]
